The values below come from PubChem BioAssay AID588844 (Broad Institute, 2011).

SMILES strings stand for the structures. Activity calls are given as the source filed them. The rule behind the calls is not given here.

What is called AC50 is the midpoint of the concentration-response curve, whichever way the signal moves.

System in one assay: not listed separately
Description: cytotoxicity toward E-cadherin-knockdown HMLE CSC-like cells – cell-based, CellTiter-Glo luminescence, dry powder, set 2, dose response (AID 588844). As to conditions: HMLE_shECad viability, CellTiter-Glo luminescence, 72 h; at 32 µM (top of the series).
With `COc1ccc(/C=C/C(=O)NC2=NCCS2)c(OC)c1`, the remaining viability fraction is 70.8% (inactive).

Take `Cc1csc(NC(=O)c2ccc(COc3cccc(F)c3)o2)n1`: the remaining viability fraction is 65.6% (inactive).

Regarding `Cc1ccc(/C=C/C(=O)NC2=NCCS2)cc1`, the remaining viability fraction is 75.7% (inactive).

In a further assay the test system is HMLE_shECad viability, CellTiter-Glo luminescence, 72 h. The description is as above.
Conditions: not given
In the case of `Cc1csc(NC(=O)c2ccc(COc3ccccc3)o2)n1`, the AC50 was 70 nM.

Regarding `CC(C)c1ccc(/C=C/C(=O)NC2=NCCS2)cc1`, the concentration at half-maximal activity (AC50) is 300 nM.

Regarding `Cc1csc(NC(=O)c2ccc(COc3cccc(Cl)c3)o2)n1`, the AC50 is 3000 nM.

Take `O=C(/C=C/c1ccc(-c2ccccc2)cc1)NC1=NCCS1`: the AC50 is 625 nM.

For `Cc1csc(NC(=O)c2ccc(COc3ccccc3F)o2)n1`, the half-maximal activity concentration (AC50) was 2430 nM.

With `O=C(NC1CCCC1)c1ccc(COc2ccccc2)o1`, the concentration at half-maximal activity (AC50) was 23500 nM.
